Data from patent US20170035793A1, “Use of P2X Purinergic Receptor Agonists to Enhance Insulin Secretion In Pancreatic Beta Cells” (priority 2010, published 2017).
Entries after “also recorded” stand apart in the source; their conditions may differ.

Experiments:
Format in all cases: cell-based
human islets [1] = assay: Dynamic insulin secretion from perifused human islets kept at constant glucose; settings: for insulin secretory response to the agonist at low glucose: 3 mM glucose, ATP 100 μM (or concentration series), ATPγS 50 μM, BzATP 50 μM, α,β-methylene ATP 50 μM, ADP 100 μM, UTP 100 μM, adenosine 100 μM; for effect on basal insulin secretion: low glucose (3 mM), ARL67156 50 μM, apyrase 5 U/mL
Source text: (§1) Islet Isolation. Islets were isolated as previously described (57). Monkey islets were isolated from cynomolgus monkeys (Macacca fascicularis) >4 years of age at the time of pancreas procurement, as previously described (58). Pig pancreata were procured from the local slaughterhouse. Mice (C57BL/6) and rat (Lewis rat; Harlan) islets were isolated using a rodent-islet isolation technique (59). All animal protocols were approved by the University of Miami Care and Use Committee. Human pancreatic islets were obtained from the Human Islet Cell Processing Facility at the Diabetes Research Institute, University of Miami Miller School of Medicine or from the Islet Cell Resource basic science islet distribution program, Islet Cell Resource Centers (ICRs) Consortium, Division of Clinical Research, National Center for Research Resources, National Institutes of Health. Human islets were dissociated into single cells using enzyme-free cell dissociation buffer (Invitrogen). Islets and islets cells from Q:1 all species were cultured identically (37° C. and 5% CO2) inCMRL Q:2 medium-1066 (Invitrogen), niacinamide (10 mM; Sigma), ITS (BD Biosciences), Zn2SO4 (15 μM, Sigma), GlutaMAX (2 mM; Invitrogen), Hepes (25 mM; Sigma), FBS (10%; Invitrogen), and penicillinstreptomycin (100 IU/mL-100 μg/mL; Invitrogen).
(§2) Insulin and Glucagon Secretion. Insulin and glucagon secretion were measured as previously described (8, 36). A high-capacity automated perifusion system was developed to dynamically measure hormone secretion from pancreatic islets. A low pulsatility peristaltic pump pushed Hepes-buffered solution (125 mM NaCl, 5.9 mM KCl, 2.56 mM CaCl2, 1 mM MgCl2, 25 mM Hepes, and 0.1% BSA, pH 7.4 at a perifusion rate of 100 μL/min) through a column containing 100 pancreatic islets immobilized in Bio-Gel P-4 Gel (BioRad). Except when otherwise stated, glucose concentration was adjusted to 3 mM for all experiments. Stimuli were applied with the perifusion buffer. The perifusate was collected in an automatic fraction collector designed for a 96-well plate format. The columns containing the islets and the perifusion solutions were kept at 37° C., and the perifusate in the collecting plate was kept at <4° C. Perifusates were collected every 1 min. Hormone release in the perifusate was determined with the human or mouse Endocrine LINCOplex Kit following manufacturer's instructions (Lincoresearch). Human islet preparations varied considerably in their quality. Thus, the magnitudes of the responses to different stimuli were compared with the same recording or using recordings from the same preparation.

human β cells = assay: [Ca2+]i imaging (Fura-2) of glucose-responsive human islet cells; settings: for [Ca2+]i response of β cells to the agonist: human β cells identified by response to high glucose (11 or 16 mM), recorded at 3 mM glucose, BzATP 50 μM; for effect on [Ca2+]i responses induced by ATPγS: iso-PPADS, nifedipine 10 μM
Source text: as §1
[Ca^2+]i; Imaging. [Ca^2+]i imaging was performed as previously described (8, 36). Dispersed islet cells were immersed in Hepes-buffered solution (125 mMNaCl, 5.9 mMKCl, 2.56 mMCaCl2, 1 mMMgCl2, 25 mMHepes, and 0.1% BSA, pH7.4). Glucose was added to give a final concentration of 3 mM. Islets or dispersed islet cells were incubated in Fura-2 AM (2 μM; 1 h) and placed in a closed small volume imaging chamber (Warner Instruments). Stimuli were applied with the bathing solution. Islets loaded with Fura-2 were excited alternatively at 340 and 380 nm with a monochromator light source (Cairn Research Optoscan Monochromator; Cairn Research Ltd). Images were acquired with a Hamamatsu camera (Hamamatsu) attached to a Zeiss Axiovert 200 microscope (Carl Zeiss). Changes in the 340/380 fluorescence emission ratio over time were analyzed in individual islets and dispersed cells using Kinetic Imaging AQM Advance software (Kinetic Imaging). Peak changes in the fluorescence ratio constituted the response amplitude. Beta cells were distinguished from other endocrine cells by their [Ca^2+]i, responses to high glucose concentrations, and alpha cells were identified by their [Ca^2+]i responses to kainate (glutamate receptor agonist) (8, 36).

human alpha cells = assay: [Ca2+]i imaging (Fura-2) of kainate-responsive human islet cells; settings: agonist 50 μM; for fraction of kainate-responsive cells that responded with rapid [Ca2+]i increases: human islet cells responding to kainate (100 μM)
human islets [2] = assay: Glucose-induced insulin secretion (glucose raised from 3 mM to 11 mM) in perifused human islets; settings: glucose 3 mM to 11 mM; for effect on glucose-induced insulin secretion: MRS2159 10 μM, Brilliant Blue G 1 μM, KN-62 1 μM, reactive blue 2 50 μM, MRS2179 10 μM, CGS15943 10 μM, adenosine 100 μM; for reduction of glucose-induced insulin release: apyrase 5 U/mL, suramin 50 μM or 100 μM, iso-PPADS 50 μM, oATP 500 μM
Source text: as §1, §2

human islets [3] = assay: ATP-induced (or α,β meATP-induced) insulin secretion in human islets with antagonists or blockers; settings: ATP 10 μM; for effect on insulin secretion induced by ATP: suramin 100 μM, Cd2+ 100 μM, nifedipine 10 μM, thapsigargin 1 μM
Source text: as §1, §2

[4] = human β cells, ATPγS 50 μM, thapsigargin 1 μM

2′(3′)-O-(4-Benzoylbenzoyl)ATP [BzATP]
insulin secretory response to the agonist at low glucose (human islets [1]): elicited insulin secretory responses; also recorded: elicited strong insulin responses | [Ca2+]i response of β cells to the agonist (human β cells; ATPγS 50 μM): rapid [Ca^2+]i increases; also recorded: elicited repeatable [Ca^2+]i responses | fraction of kainate-responsive cells that responded with rapid [Ca2+]i increases (human alpha cells): 30%

Nc1ncnc2c1ncn2[C@@H]1O[C@H](COP(=O)(O)OP(=O)(O)O)[C@@H](O)[C@H]1O [ADP]
insulin secretory response to the agonist at low glucose (human islets [1]): elicited insulin secretory responses; also recorded: increase insulin release

CCN(CC)c1ncnc2c1ncn2[C@@H]1O[C@H](COP(=O)(O)OP(=O)(O)C(Br)(Br)P(=O)(O)O)[C@@H](O)[C@H]1O [ARL67156]
effect on basal insulin secretion (human islets [1]): increased basal insulin secretion | effect on glucose-induced insulin secretion (human islets [2]): did not amplify the β-cell response

Nc1ncnc2c1ncn2[C@@H]1O[C@H](COP(=O)(O)OP(=O)(O)OP(O)(O)=S)[C@@H](O)[C@H]1O [ATPγS]
insulin secretory response to the agonist at low glucose (human islets [1]): elicited insulin secretory responses; also recorded: elicited strong insulin responses | [Ca2+]i response of β cells to the agonist (human β cells; ATPγS 50 μM): rapid [Ca^2+]i increases | [Ca2+]i response of β cells to the agonist (human β cells; ATPγS 50 μM, listed as ATP S): induced [Ca^2+]i responses | [Ca2+]i responses to the agonist in the nominal absence of extracellular Ca2+ (human β cells; human β cells, nominal 0 Ca2+ (+1 mM EGTA), ATPγS 50 μM): reduced | [Ca2+]i response of alpha cells to the agonist (human alpha cells; human alpha cells identified by kainate (100 μM), 3 mM glucose): did not respond to ATP S | fraction of kainate-responsive cells that responded with rapid [Ca2+]i increases (human alpha cells): 30%

CCOc1ccc(Nc2ccc(/C(=C3C=C/C(=[N+](/CC)Cc4cccc(S(=O)(=O)[O-])c4)C=C/3C)c3ccc(N(CC)Cc4cccc(S(=O)(=O)[O-])c4)cc3C)cc2)cc1.[Na+] [Brilliant Blue G]
effect on glucose-induced insulin secretion (human islets [2]): not significantly reduced

CN([C@@H](Cc1ccc(OS(=O)(=O)c2cccc3cnccc23)cc1)C(=O)N1CCN(c2ccccc2)CC1)S(=O)(=O)c1cccc2cnccc12 [KN-62]
effect on glucose-induced insulin secretion (human islets [2]): not significantly reduced

Cc1nc(N=Nc2ccc(C(=O)O)cc2)c(COP(=O)(O)O)c(C=O)c1O [MRS2159]
effect on glucose-induced insulin secretion (human islets [2]): not significantly reduced

CNc1ncnc2c1ncn2[C@H]1C[C@H](OP(=O)(O)O)[C@@H](COP(=O)(O)O)O1 [MRS2179]
effect on glucose-induced insulin secretion (human islets [2]): did not inhibit glucose induced insulin release

O=c1ccn([C@@H]2O[C@H](COP(=O)(O)OP(=O)(O)OP(=O)(O)O)[C@@H](O)[C@H]2O)c(=O)[nH]1 [UTP]
insulin secretory response to the agonist at low glucose (human islets [1]): did not evoke strong insulin responses; also recorded: increase insulin release

Nc1ncnc2c1ncn2[C@@H]1O[C@H](CO)[C@@H](O)[C@H]1O [adenosine]
insulin secretory response to the agonist at low glucose (human islets [1]): did not evoke strong insulin responses | insulin secretory response to the agonist at low glucose (human islets [1]; listed as Adenosine): minor effect on insulin release | effect on glucose-induced insulin secretion (human islets [2]): neither the P1 receptor antagonist CGS15943 (10 μM) nor adenosine (100 μM) altered glucose-induced insulin secretion

Cc1nc(/N=N/c2cc(S(=O)(=O)O)ccc2S(=O)(=O)O)c(COP(=O)(O)O)c(C=O)c1O [iso-PPADS]
reduction of glucose-induced insulin release (human islets [2]): 30% | inhibition at 50 µM (human islets [3]; iso-PPADS 50 μM, read-out: inhibition of insulin responses to ATP): ~95% | effect on insulin secretion induced by ATP (human islets [3]; iso-PPADS 50 μM): inhibited | block of [Ca2+]i responses to ATP (human β cells; human β cells): 80% | effect on [Ca2+]i responses induced by ATPγS (human β cells; [4]): reduced [Ca^2+]i responses

Nc1ncnc2c1ncn2[C@@H](C=O)O[C@@H](C=O)COP(=O)(O)OP(=O)(O)OP(=O)(O)O [oATP, oxidized ATP]
reduction of glucose-induced insulin release (human islets [2]): 65%

Nc1c(S(=O)(=O)O)cc(Nc2ccc(Nc3nc(Cl)nc(Nc4cccc(S(=O)(=O)O)c4)n3)c(S(=O)(=O)O)c2)c2c1C(=O)c1ccccc1C2=O [reactive blue 2]
effect on glucose-induced insulin secretion (human islets [2]): did not inhibit glucose induced insulin release

Cc1ccc(C(=O)Nc2ccc(S(=O)(=O)O)c3cc(S(=O)(=O)O)cc(S(=O)(=O)O)c23)cc1NC(=O)c1cccc(NC(=O)Nc2cccc(C(=O)Nc3cc(C(=O)Nc4ccc(S(=O)(=O)O)c5cc(S(=O)(=O)O)cc(S(=O)(=O)O)c45)ccc3C)c2)c1 [suramin]
reduction of glucose-induced insulin release (human islets [2]): 40% | effect on insulin secretion induced by ATP (human islets [3]; iso-PPADS 50 μM): inhibited

C/C=C(/C)C(=O)O[C@H]1C(C)=C2[C@H]([C@@H]1OC(=O)CCCCCCC)[C@@](C)(OC(C)=O)C[C@H](OC(=O)CCC)[C@@]1(O)[C@H]2OC(=O)[C@@]1(C)O [thapsigargin]
effect on insulin secretion induced by ATP (human islets [3]; iso-PPADS 50 μM): had no effect on insulin responses to ATP | effect on insulin secretion induced by ATP (human islets [3]; iso-PPADS 50 μM, listed as Thapsigargin): did not affect insulin responses | effect on [Ca2+]i responses induced by ATPγS (human β cells; [4]): not decreased | effect on [Ca2+]i responses to ATP (human β cells; human β cells, thapsigargin 1 μM, nifedipine): did not affect [Ca^2+]i responses to ATP

Nc1ncnc2c1ncn2[C@@H]1O[C@H](COP(=O)(O)CP(=O)(O)OP(=O)(O)O)[C@@H](O)[C@H]1O [α,β-methylene ATP]
insulin secretory response to the agonist at low glucose (human islets [1]): elicited strong insulin responses | insulin responses to the agonist in the nominal absence of extracellular Ca2+ (human islets [3]; nominal 0 Ca2+ (+1 mM EGTA), α,β meATP 100 μM): strongly diminished | [Ca2+]i response of β cells to the agonist (human β cells; ATPγS 50 μM): elicited repeatable [Ca^2+]i responses

adenosine deaminase
effect of degrading adenosine on the apyrase effect on glucose-stimulated insulin secretion (human islets [2]; ADA 1 U/mL added to apyrase 5 U/mL): did not change the effect of apyrase on glucose-stimulated insulin secretion

apyrase
effect on basal insulin secretion (human islets [1]): did not reduce basal insulin secretion | effect on basal insulin secretion (human islets [1]; listed as Apyrase): did not change basal insulin secretion | reduction of glucose-induced insulin release (human islets [2]): ~15%
